Columns and labels:
PIM1 = PIM1 (Homo sapiens, UniProt P11309); experiment: Pim1 ATP depletion assay; assay type: biochemical; conditions: 20 μM ATP, 2.5 nM PIM1
Description: The activity of PIM1 is measured using a luciferase-luciferin based ATP detection reagent to quantify ATP depletion resulting from kinase-catalyzed phosphoryl transfer to a peptide substrate. Compounds to be tested are dissolved in 100% DMSO and directly distributed into white 384-well plates at 0.5 μl per well. To start the reaction, 10 μl of 5 nM Pim1 kinase and 80 μM BAD peptide (RSRHSSYPAGT-OH) in assay buffer (50 mM HEPES pH 7.5, 5 mM MgCl2, 1 mM DTT, 0.05% BSA) is added into each well. After 15 minutes, 10 μl of 40 μM ATP in assay buffer is added. Final assay concentrations are 2.5 nM PIM1, 20 μM ATP, 40 μM BAD peptide and 2.5% DMSO. The reaction is performed until approximately 50% of the ATP is depleted, then stopped with the addition of 20 μl KinaseGlo Plus (Promega Corporation) solution. The stopped reaction is incubated for 10 minutes and the remaining ATP detected via luminescence on the Victor2 (Perkin Elmer). […] IC50, the half maximal inhibitory concentration, represents the concentration of a test compound that is required for 50% inhibition of its target in vitro.

PIM2 = PIM2 (Homo sapiens, UniProt Q9P1W9); experiment: Pim2 ATP depletion assay; assay type: biochemical; conditions: 4 μM ATP, 5 nM PIM2
Description: The activity of PIM2 is measured using a luciferase-luciferin based ATP detection reagent to quantify ATP depletion resulting from kinase-catalyzed phosphoryl transfer to a peptide substrate. Compounds to be tested are dissolved in 100% DMSO and directly distributed into white 384-well plates at 0.5 μl per well. To start the reaction, 10 μl of 10 nM Pim2 kinase and 20 μM BAD peptide (RSRHSSYPAGT-OH) in assay buffer (50 mM HEPES pH 7.5, 5 mM MgCl2, 1 mM DTT, 0.05% BSA) is added into each well. After 15 minutes, 10 μl of 8 μM ATP in assay buffer is added. Final assay concentrations are 5 nM PIM2, 4 μM ATP, 10 μM BAD peptide and 2.5% DMSO. The reaction is performed until approximately 50% of the ATP is depleted, then stopped with the addition of 20 μl KinaseGlo Plus (Promega Corporation) solution. The stopped reaction is incubated for 10 minutes and the remaining ATP detected via luminescence on the Victor2 (Perkin Elmer).

PIM3 = PIM3 (Homo sapiens, UniProt Q86V86); experiment: Pim3 ATP depletion assay; assay type: biochemical; conditions: 40 μM ATP
Description: The activity of PIM3 is measured using a luciferase-luciferin based ATP detection reagent to quantify ATP depletion resulting from kinase-catalyzed phosphoryl transfer to a peptide substrate. Compounds to be tested are dissolved in 100% DMSO and directly distributed into white 384-well plates at 0.5 μl per well. To start the reaction, 10 μl of 10 nM Pim3 kinase and 200 μM BAD peptide (RSRHSSYPAGT-OH) in assay buffer (50 mM HEPES pH 7.5, 5 mM MgCl2, 1 mM DTT, 0.05% BSA) is added into each well. After 15 minutes, 10 μl of 80 μM ATP in assay buffer is added. Final assay concentrations are 5 nM PIM1, 40 μM ATP, 100 μM BAD peptide and 2.5% DMSO. The reaction is performed until approximately 50% of the ATP is depleted, then stopped by the addition of 20 μl KinaseGlo Plus (Promega Corporation) solution. The stopped reaction is incubated for 10 minutes and the remaining ATP detected via luminescence on the Victor2 (Perkin Elmer).

KMS11 cells = experiment: Cell proliferation assay (CellTiter-Glo); assay type: cell-based; conditions: KMS-11, 72 h; KMS11 human myeloma cell line, 3 days
Description: KMS11 (human myeloma cell line), were cultured in IMDM supplemented with 10% FBS, sodium pyruvate and antibiotics. Cells were plated in the same medium at a density of 2000 cells per well into 96 well tissue culture plates, with outside wells vacant, on the day of assay. MM1.s (human myeloma cell line), were cultured in RPMI1640 supplemented with 10% FBS, sodium pyruvate and antibiotics. Cells were plated in the same medium at a density of 5000 cells per well into 96 well tissue culture plates, with outside wells vacant, on the day of assay.
Test compounds supplied in DMSO were diluted into DMSO at 500 times the desired final concentrations before dilution into culture media to 2 times final concentrations. Equal volumes of 2× compounds were added to the cells in 96 well plates and incubated at 37° C. for 3 days.
After 3 days plates were equilibrated to room temperature and equal volume of CellTiter-Glow Reagent (Promega) was added to the culture wells. The plates were agitated briefly and luminescent signal was measured with luminometer. The percent inhibition of the signal seen in cells treated with DMSO alone vs. cells treated with control compound was calculated and used to determine EC50 values (i.e., the concentration of a test compound that is required to obtain 50% of the maximum effect in the cells) for tested compounds, as shown in Example 41.

Chain of PIM1 (P11309 whole entry): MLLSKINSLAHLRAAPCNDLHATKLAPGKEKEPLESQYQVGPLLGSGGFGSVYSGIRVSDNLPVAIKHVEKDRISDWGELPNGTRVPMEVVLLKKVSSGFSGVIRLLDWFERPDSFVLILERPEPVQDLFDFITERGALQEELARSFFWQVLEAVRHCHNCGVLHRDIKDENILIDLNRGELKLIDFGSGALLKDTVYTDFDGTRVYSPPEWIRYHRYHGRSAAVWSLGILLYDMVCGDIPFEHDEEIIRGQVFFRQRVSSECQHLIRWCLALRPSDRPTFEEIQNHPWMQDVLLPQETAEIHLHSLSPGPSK
Chain of PIM2 (Q9P1W9 whole entry): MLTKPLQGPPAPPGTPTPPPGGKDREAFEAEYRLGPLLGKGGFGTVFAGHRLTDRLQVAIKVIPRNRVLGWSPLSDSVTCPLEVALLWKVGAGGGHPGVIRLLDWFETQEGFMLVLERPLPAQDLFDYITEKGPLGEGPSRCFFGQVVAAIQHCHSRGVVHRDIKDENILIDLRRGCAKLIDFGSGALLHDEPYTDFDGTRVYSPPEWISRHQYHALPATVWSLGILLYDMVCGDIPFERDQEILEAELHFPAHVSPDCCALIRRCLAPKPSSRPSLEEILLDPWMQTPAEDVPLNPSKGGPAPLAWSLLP

Compound	IC50 (PIM1) [nM]	IC50 (PIM2) [nM]	IC50 (PIM3) [nM]	EC50 (KMS11 cells) [nM]
N[C@H]1CCCN(c2ccnc3ccc(-c4cccc(-c5nccs5)n4)cc23)C1 [Example 27, (S)-1-(6-(6-(thiazol-2-yl)pyridin-2-yl)quinolin-4-yl)piperidin-3-amine]	10	45	10	940
N[C@H]1CCCN(c2ccnc3cnc(-c4cccc(-c5nccs5)n4)cc23)C1 [Example 25, (S)-1-(6-(6-(thiazol-2-yl)pyridin-2-yl)-1,7-naphthyridin-4-yl)piperidin-3-amine]	6	60	7	590
Nc1ccc(-c2cc(C(=O)Nc3ccccc3)ccc2F)nc1-c1cc2c(N3CCC[C@H](N)C3)ccnc2cn1 [Example 12, (S)-3-(5-amino-6-(4-(3-aminopiperidin-1-yl)-1,7-naphthyridin-6-yl)pyridin-2-yl)-4-fluoro-N-phenylbenzamide]	9	98	21	4100
Nc1ccc(-c2ccc(F)cc2)nc1-c1cc2c(N3CCC[C@H](N)C3)ccnc2cn1 [Example 19, (S)-2-(4-(3-aminopiperidin-1-yl)-1,7-naphthyridin-6-yl)-6-(4-fluorophenyl)pyridin-3-amine]	6	102	7	4000
Nc1ccc(-c2c(F)cccc2F)nc1-c1cc2c(N3CCC[C@@H](N)C3)ccnc2cn1 [Example 7, (R)-2-(4-(3-aminopiperidin-1-yl)-1,7-naphthyridin-6-yl)-6-(2,6-difluorophenyl)pyridin-3-amine]	5	24	7	2800
CS(=O)(=O)c1ccc(-c2ccc(N)c(-c3cc4c(N5CCC[C@H](N)C5)ccnc4cn3)n2)cc1 [Example 24, (S)-2-(4-(3-aminopiperidin-1-yl)-1,7-naphthyridin-6-yl)-6-(4-(methylsulfonyl)phenyl)pyridin-3-amine]	2	34	7	1200
Nc1ccc(-c2nccs2)nc1-c1cc2c(N3CCC[C@H](N)C3)c(F)cnc2cn1 [Example 1, (S)-2-(4-(3-aminopiperidin-1-yl)-3-fluoro-1,7-naphthyridin-6-yl)-6-(thiazol-2-yl)pyridin-3-amine]	2	40	7	870
CC(C)NC(=O)c1ccc(F)c(-c2ccc(N)c(-c3cc4c(N5CCC[C@H](N)C5)ccnc4cn3)n2)c1 [Example 10, (S)-3-(5-amino-6-(4-(3-aminopiperidin-1-yl)-1,7-naphthyridin-6-yl)pyridin-2-yl)-4-fluoro-N-isopropylbenzamide]	3	48	13	3900
Nc1ccc(-c2ccc(S(N)(=O)=O)cc2)nc1-c1cc2c(N3CCC[C@H](N)C3)ccnc2cn1 [Example 23, (S)-4-(5-amino-6-(4-(3-aminopiperidin-1-yl)-1,7-naphthyridin-6-yl)pyridin-2-yl)benzenesulfonamide]	2	34	7	7800
CN(C)C(=O)c1ccc(F)c(-c2ccc(N)c(-c3cc4c(N5CCC[C@H](N)C5)ccnc4cn3)n2)c1 [Example 16, (S)-3-(5-amino-6-(4-(3-aminopiperidin-1-yl)-1,7-naphthyridin-6-yl)pyridin-2-yl)-4-fluoro-N,N-dimethylbenzamide]	10	120	41	4000
Nc1ccc(-c2cccs2)nc1-c1cc2c(N3CCC[C@H](N)C3)ccnc2cn1 [Example 13, (S)-2-(4-(3-aminopiperidin-1-yl)-1,7-naphthyridin-6-yl)-6-(thiophen-2-yl)pyridin-3-amine]	3	54	4	4700
Nc1cnc(-c2ccccc2F)nc1-c1cc2c(N3CCC[C@H](N)C3)ccnc2cn1 [Example 6, (S)-4-(4-(3-aminopiperidin-1-yl)-1,7-naphthyridin-6-yl)-2-(2-fluorophenyl)pyrimidin-5-amine]	4	59	3	1800
Nc1ccc(-c2nccs2)nc1-c1cc2c(N3CCC[C@H](N)C3)ccnc2cn1 [Example 5, (S)-2-(4-(3-aminopiperidin-1-yl)-1,7-naphthyridin-6-yl)-6-(thiazol-2-yl)pyridin-3-amine]	1	9	4	840
Nc1ccc(-c2c(F)cccc2F)nc1-c1cc2c(N3CCC[C@H](N)C3)ccnc2cn1 [Example 9, (S)-2-(4-(3-aminopiperidin-1-yl)-1,7-naphthyridin-6-yl)-6-(2,6-difluorophenyl)pyridin-3-amine]	1	40	6	3700
Nc1ccc(-c2ccccc2F)nc1-c1cc2c(N3CCC[C@H](N)C3)ccnc2cn1 [Example 11, (S)-2-(4-(3-aminopiperidin-1-yl)-1,7-naphthyridin-6-yl)-6-(2-fluorophenyl)pyridin-3-amine]	2	59	3	5200

Source: US8735424B2 (Novartis AG, priority 2008, dated 2014)
